Assays:
[1] = Percutaneous absorption in vitro on human skin mounted on a Franz cell; format: in vitro ADME; details: 8 hours of diffusion
Description: The percutaneous absorption of compound (Ia) from pharmaceutical composition (g) was studied after the application of a dose of 10 mg/cm^2 on human skin mounted on a Franz cell. This study was carried out by comparing percutaneous absorption on healthy skin and on delaminated skin, as a model of the weak keratinization of the anogenital region.
After 8 or 24 hours of exposure to pharmaceutical composition (g), the quantity of compound (Ia) present in each skin layer (stratum corneum, epidermis, dermis) and that having crossed the skin (receiving fluid) is quantified by HPLC.
The stratum corneum of the non-delaminated skin samples is removed from the epidermis by peeling with adhesive. The latter is applied to the skin surface under constant and controlled pressure.

[2] = Solubility of the potassium salt in comparison with the hydrochloride; format: physicochemical; details: potassium salt in comparison with its hydrochloride
[3] = system: E1 and E2 protein-dependent viral replication of HPV11; assay: Replication test (replicon reporter vector, luciferase); format: cell-based; details: Homo sapiens, read-out: IC50 on E1 and E2 protein-dependent viral replication of HPV11 in cells
From the text: (§1) In the present invention two types of tests are used to study the biological activity of compounds against papillomavirus. A first test (“E1/E2 interaction test”) evaluates the interaction between the E1 and E2 proteins of HPV (human papillomavirus) in human cells. A second test (“replication test”) measures the replication of viral genomic DNA in human cells.
The test of replication of viral genomic DNA is based on the co-transfection of a reporter vector containing an HPV origin of replication (ori) and expression vectors coding the E1 and E2 proteins of HPV. It makes it possible to follow the set of biological functions of E1 and E2 required for replication of the genome of the HPVs. […]
Compound (Ia), either in solution or in pharmaceutical compositions (a), (d), (f) and (g), was also evaluated for its inhibitory activity on the E1- and E2-dependent viral replication of HPV11/HPV6 in human cell lines derived from renal epithelial cells or cervical carcinoma cells. Various doses (0.25-40 μM) were incubated in the cell medium for 2 to 6 days after transfection, and luciferase activity was measured using a luminometer to determine the IC50 of the compound on the replication of the genome of the HPVs.

[4] = molecular target: interaction between the E1 and E2 proteins of HPV11/HPV6 (Human papillomavirus 11, UniProt P04014+P04015); assay: E1/E2 interaction test (luciferase reporter, mammalian two-hybrid type); format: cell-based
From the text: as §1
The test of interaction between E1 and E2 is similar to the tests often called “mammalian two-hybrid” tests. It is based on co-transfection of a reporter vector containing DNA binding sites for the E2 protein of HPV in the promoter controlling expression of the reporter gene, and of expression vectors coding the E1 and E2 proteins of HPV, the E1 protein being fused to the VP16 transactivation domain. […]
Compound (Ia), either in solution or in pharmaceutical compositions (a), (d), (f) and (g), was evaluated for its inhibitory activity on the interaction between the E1 and E2 proteins of HPV11/HPV6 in human cell lines derived from renal epithelial cells or cervical carcinoma cells. Various doses (0.25-40 μM) were incubated in the cell medium for 2 days after transfection, and luciferase activity was measured to determine the IC50 of the compound on the interaction between the E1 and E2 proteins of the HPVs.

Sequence of interaction between the E1 and E2 proteins of HPV11/HPV6 (P04014 whole entry): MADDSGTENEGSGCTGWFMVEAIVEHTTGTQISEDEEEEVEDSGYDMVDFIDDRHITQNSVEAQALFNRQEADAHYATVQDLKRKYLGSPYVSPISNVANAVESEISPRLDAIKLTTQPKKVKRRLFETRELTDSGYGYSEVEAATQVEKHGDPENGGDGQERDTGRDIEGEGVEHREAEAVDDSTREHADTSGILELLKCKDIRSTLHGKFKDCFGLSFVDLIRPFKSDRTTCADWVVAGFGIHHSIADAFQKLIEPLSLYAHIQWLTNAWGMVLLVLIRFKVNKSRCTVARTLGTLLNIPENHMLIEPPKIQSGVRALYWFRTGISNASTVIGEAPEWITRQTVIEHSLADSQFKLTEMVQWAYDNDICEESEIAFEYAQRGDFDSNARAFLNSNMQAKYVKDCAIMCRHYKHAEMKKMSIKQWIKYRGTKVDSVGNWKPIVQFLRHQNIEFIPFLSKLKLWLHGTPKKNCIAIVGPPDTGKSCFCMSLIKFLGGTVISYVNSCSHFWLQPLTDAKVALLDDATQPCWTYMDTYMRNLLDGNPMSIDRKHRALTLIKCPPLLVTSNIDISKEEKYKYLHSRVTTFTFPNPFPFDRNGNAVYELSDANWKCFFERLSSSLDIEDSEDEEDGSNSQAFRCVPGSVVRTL
Sequence of interaction between the E1 and E2 proteins of HPV11/HPV6 (P04015 whole entry): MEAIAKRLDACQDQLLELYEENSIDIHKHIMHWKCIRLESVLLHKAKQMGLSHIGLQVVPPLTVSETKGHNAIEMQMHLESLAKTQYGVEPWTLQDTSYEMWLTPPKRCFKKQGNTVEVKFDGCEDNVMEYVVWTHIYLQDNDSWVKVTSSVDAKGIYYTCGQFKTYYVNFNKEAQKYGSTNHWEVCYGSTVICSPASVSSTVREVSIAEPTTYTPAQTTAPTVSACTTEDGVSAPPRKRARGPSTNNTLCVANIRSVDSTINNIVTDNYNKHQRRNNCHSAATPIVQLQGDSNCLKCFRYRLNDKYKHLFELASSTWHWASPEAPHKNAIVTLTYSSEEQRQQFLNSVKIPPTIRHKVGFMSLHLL

COc1cc(CC(=O)NN(c2ccc(Cc3ccccc3)cc2)c2c(C)cccc2N2CCCCC2)c(Br)cc1C(=O)O [Compound (Ia), 4-[N′-(4-benzyl-phenyl)-N′-(2-methyl-6-piperidin-1-yl-phenyl)-hydrazinocarbonylmethyl]-5-bromo-2-methoxy-benzoic acid]
local concentration in the skin relative to the IC50 measured in cellulo ([1]; delaminated skin): 1000 times | local concentration in the skin relative to the IC50 measured in cellulo ([1]; healthy skin): 100 times | solubility [2]: increases the solubility | IC50 [3]: ~1000 nM | IC50 [4]: ~1000 nM

— US9670159B2, “Pharmaceutical composition of a papillomavirus inhibitor” (AVIRAGEN THERAPEUTICS, INC., priority 2012, dated 2017)
